Results as given in patent US12171734B2, “Pathogenic bacteria” (Sporegen Limited, priority 2018, dated 2024).
Converted amounts (≈) assume the structure as drawn. “Also recorded” adds a separate entry of the source. Numbered stars: 1 amine (or outer) side, 2 acyl side, 3 side chain; on linkers, the order of the positions; unused ones are H or OH. Bridge positions count the residues as written; N and C are the ends. Square brackets hold non-standard residues; d marks the D form. Peptide text beside a SMILES is read from it. X1 = CC(C)CCCCCCCCC[C@H](CC(=O)[*:1])O[*:2]; X2 = CCC(C)CCCCCCCCCCC(CC(=O)[*:2])N[*:1]

How the values were obtained:
M. tuberculosis H37Rv = assay: MIC by resazurin microtitre assay (REMA); assay type: cell-based; conditions: Mycobacterium tuberculosis, 240 h, read-out: MIC, M. tuberculosis H37Rv
[1] = lipopeptides of B. subtilis; cited from earlier work
[2] = Solubility in water / appearance of solution; assay type: physicochemical
From the text: C15 iturin A is an example of a lipopeptide able to form micelles and is water-soluble. The inventors suspect that C15 iturin A may enable other lipopeptides to be solubilised in water and potentially form mixed micelles enabling them to target the bacterial cell. To test this, the inventors mixed water solubilised C15 iturin A with a commercial surfactin (Sigma S3523; derived from B. subtilis and a mixture of C13-C15 surfactins). […] The presence of C15 iturin A enables the solubilisation of […] in water and probably all or many of the other lipopeptides present in or on the cell wall of SG277 and other Bacillus species. The important requirements for activity are the concentration of lipopeptides that are produced (since micelles can only be formed at levels above a critical threshold). The micelles formed are most likely to be mixed micelles (i.e., carrying different lipopeptide species but all carrying C15 iturin A)(at least for B. amyloliquefaciens).

CD630 [3] = assay: Microdilution assay of inhibitory activity against C. difficile strain 630; conditions: for activity to CD630 of commercial lipopeptides: commercial (SIGMA) samples, alone or combined
CD630 [4] = assay: Bacteriolytic vs bacteriocidal vs bacteriostatic activity on log-phase CD630 cultures (OD600, CFU); assay type: cell-based, C. difficile; conditions: activity normalised; added at log phase
Protocol: Fractions 1-3 were analysed for their ability to inhibit growth of cultures of CD630 by addition of test material at the log phase of cell growth (OD600˜0.3). Test materials were diluted in dH2O to normalise so that each sample to be tested carried the same activity/volume. […] of diluted test material was added to 1 ml of CD630 culture and 0.2 ml removed hourly for OD600 readings.
Optical density (OD600) was measured before and after addition of test material. A decline in OD600 indicates bacteriolytic activity while stalling of the increase in OD600 indicates either bacteriostatic or bacteriocidal growth. On the other hand a decline in CFU/ml indicates both bacteriolytic and/or bacteriocidal activity. (FIGS. 22A and 22B and Table 13).

NNC(=O)c1ccncc1 [Isoniazid]
MIC (M. tuberculosis H37Rv): 0.25 mg/L (≈ 1.82 µM)

CCC(C)CCCCCCCCCCC1CC(=O)N[C@@H](CC(N)=O)C(=O)N[C@@H](CCC(N)=O)C(=O)N2CCC[C@H]2C(=O)N[C@H](Cc2ccc(O)cc2)C(=O)N[C@H](CC(N)=O)C(=O)N[C@H](CC(N)=O)C(=O)N[C@H](CO)C(=O)N[C@@H](CC(N)=O)C(=O)N1 (some centres unmarked) [mycosubtilin, Mycosubtilin] (cyclo(NQP[dY][dN][dN][dS]N[X2]))
micelle size [1]: 8-18 nm

CO[C@H]1/C=C/O[C@@]2(C)Oc3c(C)c(O)c4c(O)c(c(/C=N/N5CCN(C)CC5)c(O)c4c3C2=O)NC(=O)/C(C)=C\C=C\[C@H](C)[C@H](O)[C@@H](C)[C@@H](O)[C@@H](C)[C@H](OC(C)=O)[C@@H]1C [Rifampicin]
MIC (M. tuberculosis H37Rv): 0.5 mg/L (≈ 0.608 µM)

CC(C)CCCCCCCCC[C@@H]1CC(=O)N[C@@H](CCC(=O)O)C(=O)N[C@@H](CC(C)C)C(=O)N[C@H](CC(C)C)C(=O)N[C@@H](C(C)C)C(=O)N[C@@H](CC(=O)O)C(=O)N[C@H](CC(C)C)C(=O)N[C@@H](CC(C)C)C(=O)O1 [surfactin, Surfactin] (EL[dL]VD[dL]L; linker N-C via X1)
solubility in water [2]: not soluble in water
micelle size [1]: 5-105 nm
activity against C. difficile (in words) (CD630 [3]): no activity
activity to CD630 of commercial lipopeptides (CD630 [3]): unable to demonstrate any activity; also recorded: none showed activity

fengycin
activity to CD630 of commercial lipopeptides (CD630 [3]): none showed activity

CC(N)C(=O)NC(C[C@@H]1C=C(Cl)C(=O)CC1)C(=O)O (some centres unmarked) [Chlorotetaine]
Bacteriocidal (cessation of cell growth, CD630 cfu/ml) (CD630 [4]): bacteriocidal

Iturin A
activity to CD630 of commercial lipopeptides (CD630 [3]): unable to demonstrate any activity
activity to CD630 of commercial lipopeptides (CD630 [3]; listed as iturin): none showed activity
